Assays:
[1] = Hydrolytic stability study in DMSO and water (3:1); assay type: physicochemical; conditions: 1 mg/mL
Protocol: General HPLC Procedure • Agilent, Waters X-Select C18, 2.5 μm, 4.6×30 mm column, 4 min method, 5-95% MeCN/water (0.1% formic acid). • Flow rate 2.5 ml/min • Column Oven Temperature 40° C. • Detection 254 nm.
Sample Preparation • A 1.0 mg sample of test compound was dissolved in 750 μL of DMSO. Water (250 μL) was added slowly, ensuring no precipitation occurred.
Recording Stability • A 50 μL aliquot of the test solution was removed and analysed in duplicate by 5 μL HPLC injections. The peak area for the test compound was recorded following manual integration of the corresponding UV trace. • The test solution was heated to 60° C., with stirring, and 50 μL aliquots removed for HPLC analysis at 5 and 24 h timepoints.

c-Src = c-Src (Homo sapiens (Human), UniProt P12931); experiment: c-Src enzyme inhibition (FRET); assay type: biochemical
c-Src, sequence (P12931 whole entry, looked up): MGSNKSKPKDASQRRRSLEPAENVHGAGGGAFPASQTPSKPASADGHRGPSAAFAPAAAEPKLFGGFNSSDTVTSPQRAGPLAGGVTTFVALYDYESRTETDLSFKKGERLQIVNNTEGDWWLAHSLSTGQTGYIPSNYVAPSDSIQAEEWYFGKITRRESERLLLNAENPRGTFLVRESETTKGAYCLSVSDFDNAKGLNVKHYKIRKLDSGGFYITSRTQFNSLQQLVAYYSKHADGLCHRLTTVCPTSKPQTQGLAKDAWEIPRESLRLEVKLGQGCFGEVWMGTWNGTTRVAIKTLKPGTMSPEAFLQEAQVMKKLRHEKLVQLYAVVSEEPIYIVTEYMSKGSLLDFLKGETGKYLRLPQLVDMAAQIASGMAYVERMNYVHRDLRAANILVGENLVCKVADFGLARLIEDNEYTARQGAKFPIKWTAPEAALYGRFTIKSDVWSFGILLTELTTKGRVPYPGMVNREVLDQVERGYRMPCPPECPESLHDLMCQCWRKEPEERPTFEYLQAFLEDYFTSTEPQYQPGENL
Protocol: (§1) The enzyme inhibitory activities of compounds disclosed herein are determined by FRET using synthetic peptides labelled with both donor and acceptor fluorophores (Z-LYTE, Invitrogen Ltd., Paisley, UK).
(§2) The inhibitory activities of compounds of the invention against c-Src and Syk enzymes (Invitrogen), are evaluated in a similar fashion to that described hereinabove. The relevant enzyme (3000 ng/mL or 2000 ng/mL respectively, 2.5 μL) is incubated with the test compound (either 4 μg/mL, 0.4 μg/mL, 0.04 μg/mL, or 0.004 μg/mL, 2.5 μL each) for 2 hr at RT. The FRET peptides (8 μM. 2.5 μL), and appropriate ATP solutions (2.5 μL, 800 μM for c-Src, and 60 μM ATP for Syk) are then added to the enzymes/compound mixtures and incubated for 1 hr. Development reagent (protease, 5 μL) is added for 1 hr prior to detection in a fluorescence microplate reader (Varioskan® Flash, ThermoFisher Scientific).
(§3) In all cases, the site-specific protease cleaves non-phosphorylated peptide only and eliminates the FRET signal. Phosphorylation levels of each reaction are calculated using the ratio of coumarin emission (donor) over fluorescein emission (acceptor), for which high ratios indicate high phosphorylation and low ratios indicate low phosphorylation levels.

HT29 cells = experiment: (d) IL-1β-induced IL-8 release in HT29 cells; assay type: cell-based; conditions: Homo sapiens, HT-29, read-out: IC50 for Inhibition of Cytokine Release, IL-8
Protocol: HT29 cells, a human colon adenocarcinoma cell line, are plated in a 96 well plate (24 hrs) and pre-treated with compounds at the desired concentration for 2 hours before addition of 5 ng/ml of IL-1β (Abeam) for 24 hours. Supernatants are harvested for IL-8 quantification by Sandwich ELISA (Duo-set, R&D System). The IC50 is determined from the dose response curve.

β-catenin = experiment: (m) Accumulation of β catenin in d-U937 cells; assay type: cell-based, human; conditions: Reference Compound at 1 μg/mL defined as 100%
Protocol: U937 cells, a human monocytic cell line, are differentiated into macrophage-type cells by incubation with PMA; (100 ng/mL) for between 48 to 72 hr. The cells are then incubated with either final concentrations of test compound or vehicle for 18 hr. The induction of β-catenin by the test compounds is stopped by replacing the media with 4% formaldehyde solution. Endogenous peroxide activity is neutralised by incubating with quenching buffer (100 μL, 0.1% sodium azide, 1% H2O2 in PBS with 0.05% Tween-20) for 20 min. The cells are washed with washing buffer (200 μL; PBS containing 0.05% Tween-20) and incubated with blocking solution (200 μL; 5% milk in PBS) for 1 hr, re-washed with washing buffer (200 μL) and then incubated overnight with anti-β-catenin antibody solution (50 μL) in 1% BSA/PBS (BD, Oxford, UK).
After washing with washing buffer (3×200 μL; PBS containing 0.05% Tween-20), cells are incubated with an HRP-conjugated secondary antibody solution (100 μL) in 1% BSA/PBS (Dako, Cambridge, UK) and the resultant signal is determined colourimetrically (OD: 450 nm with a reference wavelength of 655 nm) using TMB substrate (50 μL; R&D Systems, Abingdon, UK). This reaction is stopped by addition of 1N H2SO4 solution (50 μL). Cells are then washed with washing buffer and 2% crystal violet solution (50 μL) is applied for 30 min. After washing with washing buffer (3×200 μL), 1% SDS (100 μL) is added to each well and the plates are shaken lightly for 1 hr prior to measuring the absorbance at 595 nm (Varioskan® Flash, Thermo-Fisher Scientific).
The measured OD450-655 readings are corrected for cell number by dividing the OD450-655 by the OD595 readings.

GSK3α = GSK3α (Homo sapiens (Human), UniProt P49840); experiment: GSK 3α enzyme inhibition (FRET, Method 2); assay type: biochemical
GSK3α, sequence (P49840 whole entry): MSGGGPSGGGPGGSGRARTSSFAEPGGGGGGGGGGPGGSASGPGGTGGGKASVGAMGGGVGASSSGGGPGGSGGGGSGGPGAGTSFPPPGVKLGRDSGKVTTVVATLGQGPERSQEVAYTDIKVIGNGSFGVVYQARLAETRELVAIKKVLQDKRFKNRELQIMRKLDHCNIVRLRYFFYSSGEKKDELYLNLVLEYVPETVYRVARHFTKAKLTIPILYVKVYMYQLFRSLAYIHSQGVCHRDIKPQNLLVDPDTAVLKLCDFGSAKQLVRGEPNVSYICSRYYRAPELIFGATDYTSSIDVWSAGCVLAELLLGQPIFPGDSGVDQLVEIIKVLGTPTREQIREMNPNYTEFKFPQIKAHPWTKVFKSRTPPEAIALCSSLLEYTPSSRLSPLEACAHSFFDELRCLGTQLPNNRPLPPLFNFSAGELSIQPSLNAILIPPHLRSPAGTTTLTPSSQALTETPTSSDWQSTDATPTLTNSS
Protocol: as §1
The inhibitory activities of compounds of the invention against the GSK 3α enzyme isoform (Invitrogen), are evaluated by determining the level of activation/phosphorylation of the target peptide. The GSK3-α protein (500 ng/mL, 2.5 μL) is mixed with the test compound (2.5 μL at either 4 μg/mL, 0.4 μg/mL, 0.04 μg/mL, or 0.004 μg/mL) for 2 hr at RT. The FRET peptide (8 μM, 2.5 μL), which is a phosphorylation target for GSK3α, and ATP (40 μM, 2.5 μL) are then added to the enzyme/compound mixture and the resulting mixture incubated for 1 hr. Development reagent (protease, 5 μL) is added for 1 hr prior to detection in a fluorescence microplate reader (Varioskan® Flash, ThermoFisher Scientific).
as §3

PBMCs [2] = experiment: (c) IL-2 and IFN gamma release in CD3/CD28 stimulated PBMC cells; assay type: cell-based; conditions: Homo sapiens
Protocol: PBMCs from healthy subjects are separated from whole blood using a density gradient (Lymphoprep, Axis-Shield Healthcare). Cells are added to a 96 well plate pre-coated with a mixture of CD3/CD28 monoclonal antibodies (0.3 ug/ml eBioscience and 3 ug/ml BD Pharmingen respectively). Compound at the desired concentration is then added to the wells and the plate left for 3 days under normal tissue culture conditions. […] The IC50 is determined from the dose response curve.

PBMCs [3] = experiment: (i) Cell mitosis assay in PBMCs; assay type: cell-based; conditions: Homo sapiens, PBMC, 5 μg/mL
Protocol: PBMCs from healthy subjects are separated from whole blood (Quintiles, London, UK) using a density gradient (Histopaque®-1077, Sigma-Aldrich, Poole, UK). The PBMCs (3 million cells per sample) are subsequently treated with 2% PHA (Sigma-Aldrich, Poole, UK) for 48 hr, followed by a 20 hr exposure to varying concentrations of test compounds. At 2 hr before collection, PBMCs are treated with demecolcine (0.1 μg/mL; Invitrogen, Paisley, UK) to arrest cells in metaphase. […] Fluorescence is observed using an ATTUNE flow cytometer (Invitrogen, Paisley, UK), gating for lymphocytes.

PBMCs [4] = experiment: (b) LPS-induced TNFα/IL-8 release in PBMC cells; assay type: cell-based; conditions: Homo sapiens, read-out: IC50 for Inhibition of Cytokine Release, IL-8
Protocol: Peripheral blood mononuclear cells (PBMCs) from healthy subjects are separated from whole blood using a density gradient (Lymphoprep, Axis-Shield Healthcare). The PBMCs are seeded in 96 well plates and treated with compounds at the desired concentration for 2 hours before addition of 1 ng/ml LPS (Escherichia Coli 0111:B4 from Sigma Aldrich) for 24 hours under normal tissue culture conditions (37° C., 5% CO2). The supernatant is harvested for determination of IL-8 and TNFα concentrations by sandwich ELISA (Duo-set, R&D systems) and read on the fluorescence microplate reader (Varioskan® Flash, ThermoFisher Scientific).

Syk = Syk (Homo sapiens (Human), UniProt P43405); experiment: Syk enzyme inhibition (FRET); assay type: biochemical
Protocol: as §1, §2, §3

p38 MAPKα = p38 MAPKα (Homo sapiens (Human), UniProt Q16539); experiment: p38 MAPKα enzyme inhibition (FRET, Method 2); assay type: biochemical
p38 MAPKα, sequence (Q16539 whole entry): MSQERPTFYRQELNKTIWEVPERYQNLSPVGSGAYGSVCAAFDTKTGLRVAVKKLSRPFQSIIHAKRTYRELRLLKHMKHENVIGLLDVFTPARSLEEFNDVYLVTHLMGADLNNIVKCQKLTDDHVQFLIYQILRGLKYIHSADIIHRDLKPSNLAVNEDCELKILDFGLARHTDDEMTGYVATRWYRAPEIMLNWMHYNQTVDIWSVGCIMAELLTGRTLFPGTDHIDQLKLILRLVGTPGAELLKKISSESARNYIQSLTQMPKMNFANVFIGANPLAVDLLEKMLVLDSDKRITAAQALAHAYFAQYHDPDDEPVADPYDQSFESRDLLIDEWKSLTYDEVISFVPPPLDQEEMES
Protocol: as §1
The inhibitory activities of test compounds against the p38 MAPKα isoform (MAPK14: Invitrogen), are evaluated indirectly by determining the level of activation/phosphorylation of the down-stream molecule, MAPKAP-K2. The p38 MAPKα protein (80 ng/mL, 2.5 μL) is mixed with the test compound (2.5 μL of either 4 μg/mL, 0.4 μg/mL, 0.04 μg/mL or 0.004 μg/mL) for 2 hr at RT. […] The mixture is incubated for 1 hr at RT. Development reagent (protease, 5 μL) is added for 1 hr prior to detection in a fluorescence microplate reader (Varioskan® Flash, ThermoFisher Scientific).
as §3

[5] = read-out: IC50 for Inhibition of Cytokine Release, IFNγ
[6] = read-out: IC50 for Inhibition of Cytokine Release, IL-2

In the case of C#Cc1cc(Nc2nccc(Oc3ccc(NC(=O)Nc4cc(C(C)C)nn4-c4ccc(C)cc4)c4ccccc34)n2)cc(C(=O)NCCN2CCOCC2)c1 [Reference Compound A, 3-ethynyl-5-((4-((4-(3-(3-isopropyl-1-(p-tolyl)-1H-pyrazol-5-yl)ureido)naphthalen-1-yl)oxy)pyrimidin-2-yl)amino)-N-(2-morpholinoethyl)benzamide, reference compound], the “% left” value ([1]; 0 min) is reported as 100%, the “% left” value ([1]; 60° C., 300 min) is reported as 82% and the “% left” value ([1]; 60° C., 1440 min) is reported as 36%.
In the case of COCCOCCOCCNC(=O)c1cc(Nc2cc(Oc3ccc(NC(=O)Nc4cc(C(C)(C)C)nn4-c4ccc(C)cc4)c4ccccc34)ccn2)cc(OC)c1 [Example 4, 3-((4-((4-(3-(3-(tert-Butyl)-1-(p-tolyl)-1H-pyrazol-5-yl)ureido)naphthalen-1-yl)oxy)pyridin-2-yl)amino)-5-methoxy-N-(2-(2-(2-methoxyethoxy)ethoxy)ethyl)-benzamide], the IC50 (c-Src) is reported as 19 nM, the IC50 (HT29 cells) is reported as 5.3 nM and the “% β-catenin induction” value (β-catenin; 1 μg/mL) is reported as 5%. For the same compound, the “% β-catenin induction” value (β-catenin; 5 μg/mL) was 12%, the IC50 (GSK3α) was 9550 nM and the IC50 (PBMCs [2]; [5]) was 2.4 nM. For the same compound, the IC50 (PBMCs [2]; [6]) was 37.4 nM, the inhibition at 5 µg/mL (PBMCs [3]) was 38.8% and the IC50 (PBMCs [4]) was 1.4 nM. It also gave an IC50 (Syk) of 46 nM and an IC50 (p38 MAPKα) of 50 nM.
With C#Cc1cc(Nc2nccc(Oc3ccc(NC(=O)Nc4cc(C(C)(C)C)nn4-c4ccc(C)cc4)c4ccccc34)n2)cc(C(=O)NCCOCCOCCOCCOC)c1 [Example 7, 3-((4-((4-(3-(3-(tert-Butyl)-1-(p-tolyl)-1H-pyrazol-5-yl)ureido)naphthalen-1-yl)oxy)pyrimidin-2-yl)amino)-5-ethynyl-N-(2,5,8,11-tetraoxatridecan-13-yl)benzamide] the IC50 (c-Src) was 18 nM, the IC50 (HT29 cells) was 1.6 nM and the “% β-catenin induction” value (β-catenin; 1 μg/mL) was 0%. The “% β-catenin induction” value (β-catenin; 5 μg/mL) was −2%, the “% β-catenin induction” value (β-catenin; 10 μg/mL) was −5% and the IC50 (GSK3α) was 2020 nM. It also gave an IC50 (PBMCs [2]; [5]) of 3.7 nM, an IC50 (PBMCs [2]; [6]) of 91 nM and an inhibition at 5 µg/mL (PBMCs [3]) of 9.1%. For the same compound, the IC50 (PBMCs [4]) was 2.4 nM, the IC50 (Syk) was 237 nM and the IC50 (p38 MAPKα) was 88 nM.
With C#Cc1cc(Nc2nccc(Oc3ccc(NC(=O)Nc4cc(C(C)(C)C)nn4-c4ccc(C)cc4)c4ccccc34)n2)cc(C(=O)NCCOCCOC)c1 [Example 8, 3-((4-((4-(3-(3-(tert-Butyl)-1-(p-tolyl)-1H-pyrazol-5-yl)ureido)naphthalen-1-yl)oxy)pyrimidin-2-yl)amino)-5-ethynyl-N-(2-(2-methoxyethoxy)ethyl)benzamide] the IC50 (c-Src) was 20 nM, the IC50 (HT29 cells) was 3.2 nM and the “% β-catenin induction” value (β-catenin; 1 μg/mL) was 6%. For the same compound, the “% β-catenin induction” value (β-catenin; 5 μg/mL) was 3%, the “% β-catenin induction” value (β-catenin; 10 μg/mL) was 2% and the IC50 (GSK3α) was 2890 nM. It also gave an IC50 (PBMCs [2]; [5]) of 8.5 nM, an IC50 (PBMCs [2]; [6]) of 55 nM and an inhibition at 5 µg/mL (PBMCs [3]) of 6.1%. For the same compound, the IC50 (PBMCs [4]) was 1.6 nM, the IC50 (Syk) was 120 nM and the IC50 (p38 MAPKα) was 104 nM.

Source: patent US10301288B2, “Kinase inhibitors” (Topivert Pharma Limited, priority 2013, dated 2019)
